Where “and” joins values, the source holds several entries; their conditions need not be identical. Equal entries are not always repeated. Where two headings read alike, the source gives them in different places. Where no end group is shown, it is not given here.
How the values were obtained:
[1] = test system: male rabbit NaIO3 model; test: Sodium iodate (NaIO3) challenge study, duration of protection; assay type: in vivo; conditions: for lesion area vs negative control: NaIO3 challenge Day 4
Procedure: Animals were anesthetized with isoflurane vapors to effect. […] No reflux was noted on the dosing record.
Animals were anesthetized with isoflurane vapors to effect. […] NaIO3 causes one or more regions of atrophy and depigmentation which creates a window into the choroid.
The resulting area was then measured.

[2] = rabbit, in vivo
Procedure: Pharmacokinetic analyses were performed on the vitreous humor concentration data.
Seven animals received a repeat IVT dose at 2 mg/mL (0.1 mg/eye) on Day 90.
Vitreous humor, retina, and choroid were collected on days 1, 7, 14, 28, 42, 61, 90, 97, 151, and 168. Eyes were enucleated, snap frozen using liquid nitrogen, and kept on dry ice or frozen at −80° C. until dissected for collection of aqueous humor, vitreous humor, retina, choroid, iris-ciliary body (ICB), and lens.
To homogenize ocular tissue samples, weighed amounts of control bovine vitreous humor, retina, and choroid were homogenized in USA scientific impact resistant microtubes containing 2.8 mm ceramic beads. Unknown rabbit vitreous humor, retina, and choroid samples were homogenized in USA scientific impact resistant microtubes containing 2.8 mm ceramic beads. […]

[3] = test system: visual function; test: ETDRS Vision (Letters Read), BCVA, in patients treated with ONL1204; assay type: in vivo, human
[4] = minipig, in vivo
Procedure: Seven animals received a repeat IVT dose at 2 mg/mL (0.1 mg/eye) on Day 90. […] Vitreous humor, retina, and choroid were collected on days 1, 7, 14, 28, and 88.

[5] = test system: ocular lesion; test: Lesion size in historical (V1-V3) and treatment phase (V3-V9), 2 injections of ONL1204 3 months apart; assay type: in vivo, human; conditions: for % Change Nat His Phase (Using Sqrt Transformation): V1 to V3, 24 weeks before treatment; for % Change Tx Phase (Using Sqrt Transformation) / V1 Lesion Size / V3 Lesion Size / V9 Lesion Size: study eye; for % Change Tx Phase (Using Sqrt Transformation): V3 to V9, 24 weeks; for % Change Tx Phase (Using Sqrt Transformation) / V9 Lesion Size: 2 injections 3 months apart; for V1 Lesion Size: visit 1, start of historical phase, before treatment; for V3 Lesion Size: visit 3, end of historical phase, start of treatment; for V9 Lesion Size: visit 9, 24 weeks after first treatment
Procedure: (§1) Table 1A and 1B show reduced lesion sizes associated with treated eyes at week 24. Percent (%) change is measured relative the untreated fellow eye. […] Table 3A, 3B and 3C show reduced lesion sizes associated with treated eyes (Tables 3A and 3C) in addition to associated historical lesion growth (Tables 3A and 3B). […] For “% Change Based on Sqrt Transformation” and similar measures, the square root of the lesion area was determined and the % difference between the starting value and the last timepoint was calculated. Percent (%) change is measured relative the untreated fellow eye.

[6] = test system: ocular lesion; test: Lesion size in patients 24 weeks after intravitreal ONL1204; assay type: in vivo, human; conditions: for % Change in Lesion Growth: week 24, study eye relative to untreated fellow eye; for % Change Based on Sqrt Transformation / Baseline Lesion Size / Week 24 Lesion Size: study eye; for % Change Based on Sqrt Transformation: baseline to week 24, square root of lesion area; for Baseline Lesion Size: baseline prior to treatment
Procedure: The primary endpoints were the safety profile associated with single and multiple dosing in this study, including: adverse event reporting, clinical evaluations including lesion size and clinical evaluation.
Baseline best lesion size (area in square millimeters) was measured prior to treatment with ONL1204. […] The following doses were evaluated: 50 ug, 100 ug, and 200 ug (micrograms).
as §1

## HHIYLGAVNYIY-NH2 [ONL1204]
[1]; 25 ug per eye IVT Day 0
  lesion area vs negative control: significantly lower than negative control
[1]; 100 ug per eye IVT Day 0
  lesion area vs negative control: significantly lower than negative control
[1]; 100 ug per eye IVT Day 0, NaIO3 challenge Day 14
  lesion size vs negative controls and 25 ug group: significantly smaller lesion size
[1]; 100 ug per eye IVT Day 0, NaIO3 challenge Day 28
  lesion size vs negative control animals and 25 ug group: significantly smaller lesion size
[1]; across challenge time points
  mean lesion size: substantive reduction
[2]
  detection in retinal tissue as well as the vitreous humor: detected
  detection in the vitreous humor: detected
[3]; eyes having a patchy lesion
  visual function (e.g., BCVA as measured by letters read): improved visual function
[3]; study eye, 50 μg
  ETDRS Vision (Letters Read) Week 1: 42 Letters Read and 33 Letters Read
  ETDRS Vision (Letters Read) Week 2: 34 Letters Read and 33 Letters Read
  ETDRS Vision (Letters Read) Week 4: 36 Letters Read and 33 Letters Read
  ETDRS Vision (Letters Read) Week 12: 36 Letters Read
  ETDRS Vision (Letters Read) Week 24: 42 Letters Read and 35 Letters Read
[3]; study eye, 50 μg, before treatment
  ETDRS Vision (Letters Read) Screening/Baseline: 23 Letters Read and 26 Letters Read
[3]; study eye, 100 μg
  ETDRS Vision (Letters Read) Week 1: 13 Letters Read
  ETDRS Vision (Letters Read) Week 2: 13 Letters Read and 19 Letters Read
  ETDRS Vision (Letters Read) Week 12: 15 Letters Read and 27 Letters Read
  ETDRS Vision (Letters Read) Week 24: 15 Letters Read and 24 Letters Read
[3]; study eye, 100 μg, before treatment
  ETDRS Vision (Letters Read) Screening/Baseline: 14 Letters Read and 11 Letters Read
[3]; study eye, 200 μg
  ETDRS Vision (Letters Read) Week 1: 29 Letters Read and 31 Letters Read
  ETDRS Vision (Letters Read) Week 2: 32 Letters Read and 30 Letters Read
  ETDRS Vision (Letters Read) Week 4: 30 Letters Read and 38 Letters Read
  ETDRS Vision (Letters Read) Week 12: 28 Letters Read and 41 Letters Read
  ETDRS Vision (Letters Read) Week 24: 26 Letters Read and 40 Letters Read
[3]; study eye, 200 μg, baseline visit, on a different day from screening, before treatment
  ETDRS Vision (Letters Read) Baseline: 25 Letters Read
[3]; study eye, 200 μg, before treatment
  ETDRS Vision (Letters Read) Screening/Baseline: 39 Letters Read
[3]; study eye, 200 μg, screening visit, on a different day from baseline, before treatment
  ETDRS Vision (Letters Read) Screening: 19 Letters Read
[4]
  detection in the vitreous humor: detected
[5]; study eye later given 50 ug
  % Change Nat His Phase (Using Sqrt Transformation): 5.31% and 1.38%
[5]; study eye later given 100 ug
  % Change Nat His Phase (Using Sqrt Transformation): 2.97% and 3.20%
[5]; 50 ug
  % Change Tx Phase (Using Sqrt Transformation): 3.74% and 0.05%
  V1 Lesion Size: 12.08 mm^2 and 18.41 mm^2
  V3 Lesion Size: 13.4 mm^2 and 18.92 mm^2
  V9 Lesion Size: 14.42 mm^2 and 18.94 mm^2
[5]; 100 ug
  % Change Tx Phase (Using Sqrt Transformation): 3.37% and 1.39%
  V1 Lesion Size: 5.64 mm^2 and 7.7 mm^2
  V3 Lesion Size: 5.98 mm^2 and 8.2 mm^2
  V9 Lesion Size: 6.39 mm^2 and 8.43 mm^2
[6]; 50 ug
  % Change in Lesion Growth: −45%
  % Change Based on Sqrt Transformation: 4.14% and 6.95%
[6]; 100 ug
  % Change in Lesion Growth: −27% and −32%
  % Change Based on Sqrt Transformation: 2.70% and 6.90%
[6]; 200 ug
  % Change in Lesion Growth: −57% and −53%
  % Change Based on Sqrt Transformation: 2.32% and 3.73%
[6]; all patients, doses 50, 100 and 200 ug, compared to untreated fellow eye
  lesion size growth: reduction in lesion size growth
[6]; 100 ug intravitreal
  Baseline Lesion Size: 20.1 mm^2 and 24.16 mm^2
  Week 24 Lesion Size: 21.2 mm2 and 27.61 mm2
[6]; 200 ug intravitreal
  Baseline Lesion Size: 9.37 mm^2 and 9.09 mm^2
  Week 24 Lesion Size: 9.81 mm2 and 9.78 mm2

Reference: patent publication US20260200980A1, “METHODS AND COMPOSITIONS FOR TREATING OCULAR LESIONS” (priority 2022, published 2026)
